Laboratory results taken from ChEMBL document CHEMBL5331046, “Disulfiram and dithiocarbamate analogues demonstrate promising antischistosomal effects” (Eur J Med Chem, 2022).
Active and inactive are the calls of the source. The rule behind the calls is not given here.

Key:
Schistosoma mansoni [1] = test: Antischistosomal activity against Schistosoma mansoni couples assessed as decrease in parasite motility at 50 uM measured upto 72 hrs by bright field microscopy; type: functional; set-up: scale not given: the % may be the effect or the level left
Schistosoma mansoni [2] = test: Antischistosomal activity against Schistosoma mansoni couples assessed as inhibition of eggs production at 50 uM measured upto 72 hrs by bright field microscopy; type: functional, organism-based
HepG2 [3] = test: Cytotoxicity against human HepG2 cells assessed as reduction in cell vaibility at 100 uM by WST-1 assay; type: toxicity, cell-based; details: hepg2, 100 µM
LS174T [4] = test: Cytotoxicity against human LS174T cells assessed as reduction in cell viability at 100 uM by WST-1 assay; type: toxicity, cell-based
Schistosoma mansoni [5] = test: Antischistosomal activity against Schistosoma mansoni couples assessed as reduction in pairing stability at 50 uM measured upto 72 hrs by bright field microscopy; type: functional, organism-based
Schistosoma mansoni [6] = test: Antischistosomal activity against Schistosoma mansoni couples assessed as detachment of worms from culture dish at 100 uM measured upto 72 hrs by bright field microscopy; type: functional, organism-based
Schistosoma mansoni [7] = test: Antischistosomal activity against Schistosoma mansoni couples assessed as reduction in pairing stability at 100 uM measured upto 72 hrs by bright field microscopy; type: functional; set-up: scale not given: the % may be the effect or the level left
Schistosoma mansoni [8] = test: Antischistosomal activity against Schistosoma mansoni couples assessed as inhibition of eggs production at 100 uM measured upto 72 hrs by bright field microscopy; type: functional; set-up: scale not given: the % may be the effect or the level left
Schistosoma mansoni [9] = test: Antischistosomal activity against Schistosoma mansoni couples assessed as decrease in parasite motility at 100 uM measured upto 72 hrs by bright field microscopy; type: functional; set-up: scale not given: the % may be the effect or the level left
Schistosoma mansoni [10] = test: Antischistosomal activity against Schistosoma mansoni couples assessed as decrease in parasite motility at 25 uM measured upto 72 hrs by bright field microscopy; type: functional; set-up: scale not given: the % may be the effect or the level left
HepG2 [11] = test: Cytotoxicity against human HepG2 cells assessed as reduction in cell vaibility at 50 uM by WST-1 assay; type: toxicity, cell-based; details: hepg2, 50 µM
LS174T [12] = test: Cytotoxicity against human LS174T cells assessed as reduction in cell vaibility at 50 uM by WST-1 assay; type: toxicity, cell-based
Schistosoma mansoni [13] = test: Antischistosomal activity against Schistosoma mansoni couples at 100 uM measured upto 72 hrs by bright field microscopy; type: functional, organism-based
Schistosoma mansoni [14] = test: Antischistosomal activity against Schistosoma mansoni couples assessed as induction of weak phenotypes at 25 uM measured upto 72 hrs by bright field microscopy; type: functional, organism-based
Schistosoma mansoni [15] = test: Antischistosomal activity against Schistosoma mansoni couples assessed as pairing instability at 50 uM measured upto 72 hrs by bright field microscopy; type: functional
Schistosoma mansoni [16] = test: Antischistosomal activity against Schistosoma mansoni couples assessed as gut dilations at 100 uM measured upto 72 hrs by bright field microscopy; type: functional, organism-based
Schistosoma mansoni [17] = test: Antischistosomal activity against Schistosoma mansoni couples assessed as gut dilations at 50 uM measured upto 72 hrs by bright field microscopy; type: functional, organism-based
Schistosoma mansoni [18] = test: Antischistosomal activity against Schistosoma mansoni couples assessed as tegument damage upto 100 uM measured upto 72 hrs by bright field microscopy; type: functional, organism-based
HepG2 [19] = test: Cytotoxicity against human HepG2 cells assessed as reduction in cell viability upto 100 uM by WST-1 assay; type: toxicity, cell-based; details: hepg2, 100 µM
LS174T [20] = test: Cytotoxicity against human LS174T cells assessed as reduction in cell vaibility upto 100 uM by WST-1 assay; type: toxicity, cell-based
Schistosoma mansoni [21] = test: Antischistosomal activity against Schistosoma mansoni couples assessed as eggs deformation at 100 uM measured upto 72 hrs by bright field microscopy; type: functional
Schistosoma mansoni [22] = test: Antischistosomal activity against Schistosoma mansoni couples assessed as tegument damage at 100 uM measured upto 72 hrs by bright field microscopy; type: functional, organism-based
Schistosoma mansoni [23] = test: Antischistosomal activity against Schistosoma mansoni couples assessed as decrease in parasite motility at 10 uM measured upto 72 hrs by bright field microscopy; type: functional, organism-based
Schistosoma mansoni [24] = test: Antischistosomal activity against Schistosoma mansoni couples assessed as decrease in parasite motility at 15 uM measured upto 72 hrs by bright field microscopy; type: functional; set-up: scale not given: the % may be the effect or the level left
Schistosoma mansoni [25] = test: Antischistosomal activity against Schistosoma mansoni couples assessed as decrease in parasite vitality at 15 uM measured upto 72 hrs by bright field microscopy; type: functional; set-up: scale not given: the % may be the effect or the level left
Schistosoma mansoni [26] = test: Antischistosomal activity against Schistosoma mansoni couples assessed as decrease in pairing stability at 15 uM measured upto 72 hrs by bright field microscopy; type: functional; set-up: scale not given: the % may be the effect or the level left
Schistosoma mansoni [27] = test: Antischistosomal activity against Schistosoma mansoni couples assessed as inhibition of eggs production at 15 uM measured upto 72 hrs by bright field microscopy; type: functional; set-up: scale not given: the % may be the effect or the level left
Schistosoma mansoni [28] = test: Antischistosomal activity against Schistosoma mansoni couples assessed as induction of phenotypes at 10 uM measured upto 72 hrs by bright field microscopy; type: functional, organism-based
Schistosoma mansoni [29] = test: Antischistosomal activity against Schistosoma mansoni couples at 25 uM measured upto 72 hrs by bright field microscopy; type: functional, organism-based
Schistosoma mansoni [30] = test: Antischistosomal activity against Schistosoma mansoni couples at 10 uM measured upto 72 hrs by bright field microscopy; type: functional, organism-based
Schistosoma mansoni [31] = test: Antischistosomal activity against Schistosoma mansoni couples at >=50 uM measured upto 72 hrs by bright field microscopy; type: functional, organism-based

Structure (SMILES): CCN(CC)C(=S)SCc1ccc2ccccc2c1
- Activity (Schistosoma mansoni [1]): >50%
- Activity (Schistosoma mansoni [2]): Active
- Activity (HepG2 [3]): Non-Toxic
- Activity (LS174T [4]): Non-Toxic
- Activity (Schistosoma mansoni [5]): Active

Structure (SMILES): S=C(SCc1ccccc1)N1CCSC1
- Activity (Schistosoma mansoni [6]): Active

Structure (SMILES): CCN(CC)C(=S)SCc1ccccc1
- Activity (Schistosoma mansoni [7]): 100%
- Activity (Schistosoma mansoni [8]): 100%
- Activity (Schistosoma mansoni [9]): 50%
- Activity (Schistosoma mansoni [10]): 30%
- Activity (HepG2 [11]): Toxic
- Activity (LS174T [12]): Toxic

Structure (SMILES): S=C(SCc1ccccc1)N1CCc2ccccc2C1
- Activity (Schistosoma mansoni [13]): inactive

Structure (SMILES): Cl.N[C@@H](CO)C(=O)N1CCN(C(=S)SCc2ccc([N+](=O)[O-])cc2)CC1
- Activity (Schistosoma mansoni [10]): 30%
- Activity (Schistosoma mansoni [14]): Active

Structure (SMILES): Cc1ccc(CN2CCN(C(=S)SCc3ccccc3)CC2)cc1
- Activity (Schistosoma mansoni [13]): Active

Structure (SMILES): CCN(CC)C(=S)SCCC1OCCO1
- Activity (Schistosoma mansoni [9]): inactive
- Activity (Schistosoma mansoni [15]): inactive

Structure (SMILES): S=C(SCc1ccccc1)N1CCN(/C=C/c2ccccc2)CC1
- Activity (Schistosoma mansoni [13]): inactive

Structure (SMILES): CCN(CC)C(=S)SCCC1OCCCO1
- Activity (Schistosoma mansoni [1]): inactive

Structure (SMILES): S=C(SCc1ccccc1)N1CCSCC1
- Activity (Schistosoma mansoni [1]): ~45%
- Activity (Schistosoma mansoni [9]): 45%
- Activity (HepG2 [3]): Non-Toxic
- Activity (LS174T [4]): Non-Toxic
- Activity (Schistosoma mansoni [16]): Active
- Activity (Schistosoma mansoni [17]): Active
- Activity (Schistosoma mansoni [6]): Active

Structure (SMILES): CCN(CC)C(=S)SCCC1SCCS1
- Activity (Schistosoma mansoni [9]): >60%
- Activity (Schistosoma mansoni [15]): >90%
- Activity (Schistosoma mansoni [18]): Active
- Activity (HepG2 [19]): Non-Toxic
- Activity (LS174T [20]): Non-Toxic

Structure (SMILES): CCN(CC)C(=O)OCc1ccccc1
- Activity (Schistosoma mansoni [21]): ~100%

Structure (SMILES): CCN(CC)C(=S)SCc1cccc2ccccc12
- Activity (Schistosoma mansoni [1]): ~30%

Structure (SMILES): Cl.S=C(SCc1ccccc1)N1CCNCC1
- Activity (Schistosoma mansoni [1]): ~35%
- Activity (Schistosoma mansoni [9]): >=55%
- Activity (Schistosoma mansoni [22]): Active
- Activity (HepG2 [11]): Toxic
- Activity (LS174T [12]): Toxic
- Activity (Schistosoma mansoni [16]): Active

Structure (SMILES): S=C(SCc1ccccc1)n1cnnc1
- Activity (Schistosoma mansoni [13]): inactive

Structure (SMILES): O=[N+]([O-])c1ccc(CSC(=S)N2CCN(S(=O)(=O)C3CC3)CC2)cc1
- Activity (Schistosoma mansoni [23]): Active
- Activity (Schistosoma mansoni [24]): 50%
- Activity (Schistosoma mansoni [25]): 90%
- Activity (Schistosoma mansoni [26]): 20%
- Activity (Schistosoma mansoni [27]): 40%
- Activity (Schistosoma mansoni [28]): Active

Structure (SMILES): CC(C)NC(=O)CN1CCN(C(=S)SCc2ccc([N+](=O)[O-])cc2)CC1
- Activity (Schistosoma mansoni [13]): Active
- Activity (Schistosoma mansoni [29]): Active
- Activity (Schistosoma mansoni [30]): inactive

Structure (SMILES): CCN(CC)C(=S)SCC(=O)OC
- Activity (Schistosoma mansoni [7]): Active

Structure (SMILES): CCN(CC)C(=S)SCCCCc1ccccc1
- Activity (Schistosoma mansoni [7]): inactive
- Activity (Schistosoma mansoni [8]): Active

Structure (SMILES): Cl.N[C@@H](Cc1ccc(O)cc1)C(=O)N1CCN(C(=S)SCc2ccc([N+](=O)[O-])cc2)CC1
- Activity (Schistosoma mansoni [10]): 30%
- Activity (Schistosoma mansoni [14]): Active

Structure (SMILES): CC(=O)N1CCN(C(=S)SCc2ccc([N+](=O)[O-])cc2)CC1
- Activity (Schistosoma mansoni [29]): inactive

Structure (SMILES): CCN(CC)C(=S)SCCCc1ccccc1
- Activity (Schistosoma mansoni [7]): 100%
- Activity (Schistosoma mansoni [8]): 100%
- Activity (Schistosoma mansoni [9]): inactive

Structure (SMILES): CCN(CC)C(=S)SCCc1c[nH]c2ccccc12
- Activity (Schistosoma mansoni [9]): inactive
- Activity (Schistosoma mansoni [16]): Active

Structure (SMILES): CN(C)C(=S)SCc1ccccc1
- Activity (Schistosoma mansoni [7]): Active
- Activity (Schistosoma mansoni [21]): Active

Structure (SMILES): CCN(CC)C(=S)SCCC1SCCCS1
- Activity (Schistosoma mansoni [1]): Active
- Activity (Schistosoma mansoni [9]): <40%
- Activity (Schistosoma mansoni [15]): 0%
- Activity (Schistosoma mansoni [18]): Active
- Activity (HepG2 [19]): Non-Toxic
- Activity (LS174T [20]): Non-Toxic

Structure (SMILES): CCN(CC)C(=S)SC(c1ccccc1)c1ccccc1
- Activity (Schistosoma mansoni [7]): Active

Structure (SMILES): CN1CCN(C(=S)SCc2ccccc2)CC1
- Activity (Schistosoma mansoni [31]): Active

Structure (SMILES): CCS(=O)(=O)N1CCN(C(=S)SCc2ccc([N+](=O)[O-])cc2)CC1
- Activity (Schistosoma mansoni [23]): inactive
- Activity (Schistosoma mansoni [24]): 50%
- Activity (Schistosoma mansoni [25]): 90%
- Activity (Schistosoma mansoni [26]): 20%
- Activity (Schistosoma mansoni [27]): 40%
- Activity (Schistosoma mansoni [28]): inactive

Structure (SMILES): O=C(c1ccco1)N1CCN(C(=S)SCc2ccc([N+](=O)[O-])cc2)CC1
- Activity (Schistosoma mansoni [29]): inactive

Structure (SMILES): CCCN1CCN(C(=S)SCc2ccccc2)CC1
- Activity (Schistosoma mansoni [31]): Active

Structure (SMILES): CCN(CC)C(=S)OCc1ccccc1
- Activity (Schistosoma mansoni [7]): 50%
- Activity (Schistosoma mansoni [8]): 100%
